Test results published in EP4467974A1, “NOVEL CHEMOSENSORS AND THEIR USE IN ELECTROCHEMICAL DETECTION METHODS” (Karlsruher Institut für Technologie, priority 2023, dated 2024).
Read-outs that look alike come from different tables or passages of the source.

Columns and labels:
[1] = cited from earlier work
[2] = Binding affinity (log Ka) of guests for the macrocyclic receptor cucurbit[7]uril; details: PtC as indicator for CB7 (CB7⊃PtC inclusion complex), result in words
[3] = binding affinity for CB7 (host-guest complex)

SMILES: NCCc1c[nH]c2ccc(O)cc12 [serotonin]
- log Ka [1, 3]: 4.8

SMILES: CC(=O)O[C@H]1C[C@@H]2CC[C@@H]3[C@H](CC[C@@]4(C)[C@H]3C[C@H]([N+]3(C)CCCCC3)[C@@H]4OC(C)=O)[C@@]2(C)C[C@@H]1[N+]1(C)CCCCC1 [pancuronium bromide]
- log Ka [1]: 10.23

SMILES: OCCOCCOCCn1cc2[n+](n1)[Pt-2]([Cl])([Cl])[n+]1ccccc1-2 [PtC]
- binding affinity [2]: intermediate

SMILES: NCCc1ccc(O)c(O)c1 [dopamine]
- log Ka [1, 3]: 5.0
